Results as given in ChEMBL document CHEMBL1201862, “PubChem BioAssay data set” (2004).
Calls of active or inactive are those of the source.

Tests used:
[1] = biological target: Peroxisome proliferator-activated receptor gamma/Nuclear receptor coactivator 3 (Homo sapiens, UniProt P37231); assay: TR-FRET dose response biochemical High Throughput Screening assay for agonists of the steroid receptor coactivator 3 (SRC-3) recruitment by the peroxisome proliferator-activated receptor gamma (PPAR gamma): non-selective agonists. [Related pubchem assays: 1301 (Confirmation screen.), 1048 (Primary screen.)]; format: functional
[2] = biological target: T1, Polyadenylate-binding protein 1 (Homo sapiens, UniProt P11940); assay: PABP1 MLLE–PAM2 binding inhibitor potency, dose response, biochemical, fluorescence polarization, FITC-PAM2 peptide (AID 602259); format: functional; conditions: read-out: IC50_Mean
T1 sequence (P11940 whole entry): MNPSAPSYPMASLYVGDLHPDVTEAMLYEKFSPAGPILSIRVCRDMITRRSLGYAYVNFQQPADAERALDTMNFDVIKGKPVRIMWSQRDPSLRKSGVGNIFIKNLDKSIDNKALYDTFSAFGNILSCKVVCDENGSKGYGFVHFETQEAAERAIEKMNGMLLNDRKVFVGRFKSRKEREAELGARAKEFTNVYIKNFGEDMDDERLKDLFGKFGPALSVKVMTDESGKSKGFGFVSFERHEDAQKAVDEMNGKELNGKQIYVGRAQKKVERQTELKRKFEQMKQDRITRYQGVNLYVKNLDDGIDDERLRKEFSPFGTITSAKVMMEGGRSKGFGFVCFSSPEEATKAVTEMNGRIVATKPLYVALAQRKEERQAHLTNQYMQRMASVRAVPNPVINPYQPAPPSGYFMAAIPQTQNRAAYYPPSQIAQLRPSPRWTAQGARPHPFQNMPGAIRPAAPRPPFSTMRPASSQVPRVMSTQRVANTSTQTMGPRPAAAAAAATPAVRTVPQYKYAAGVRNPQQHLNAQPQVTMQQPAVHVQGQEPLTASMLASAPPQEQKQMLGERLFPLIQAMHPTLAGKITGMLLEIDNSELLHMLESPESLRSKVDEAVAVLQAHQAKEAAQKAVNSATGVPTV

[3] = biological target: Peroxisome proliferator-activated receptor gamma/Nuclear receptor coactivator 2 (Homo sapiens, UniProt P37231); assay: (§1) TR-FRET dose response biochemical High Throughput Screening assay for agonists of the steroid receptor coactivator 2 (SRC-2) recruitment by the peroxisome proliferator-activated receptor gamma (PPAR gamma): non-selective agonists. [Related pubchem assays: 1297, 1032 ]; format: functional
[4] = biological target: Peroxisome proliferator-activated receptor gamma/Nuclear receptor coactivator 1 (Homo sapiens, UniProt P37231); assay: as §1, with “1 (SRC-1)” for “2 (SRC-2)”, “assays (depositor defined):AID1300, AID1808, AID504735, AID631]” for “assays: 1297, 1032 ]”; format: protein assay
Leucine aminopeptidase = biological target: T2, Leucine aminopeptidase (Plasmodium falciparum 3D7, UniProt Q8IL11); assay: P. falciparum M17LAP inhibitors, primary screen, biochemical, fluorogenic H-Leu-NHMec substrate, 1536-well (AID 1619); format: functional
T2 sequence (Q8IL11 whole entry): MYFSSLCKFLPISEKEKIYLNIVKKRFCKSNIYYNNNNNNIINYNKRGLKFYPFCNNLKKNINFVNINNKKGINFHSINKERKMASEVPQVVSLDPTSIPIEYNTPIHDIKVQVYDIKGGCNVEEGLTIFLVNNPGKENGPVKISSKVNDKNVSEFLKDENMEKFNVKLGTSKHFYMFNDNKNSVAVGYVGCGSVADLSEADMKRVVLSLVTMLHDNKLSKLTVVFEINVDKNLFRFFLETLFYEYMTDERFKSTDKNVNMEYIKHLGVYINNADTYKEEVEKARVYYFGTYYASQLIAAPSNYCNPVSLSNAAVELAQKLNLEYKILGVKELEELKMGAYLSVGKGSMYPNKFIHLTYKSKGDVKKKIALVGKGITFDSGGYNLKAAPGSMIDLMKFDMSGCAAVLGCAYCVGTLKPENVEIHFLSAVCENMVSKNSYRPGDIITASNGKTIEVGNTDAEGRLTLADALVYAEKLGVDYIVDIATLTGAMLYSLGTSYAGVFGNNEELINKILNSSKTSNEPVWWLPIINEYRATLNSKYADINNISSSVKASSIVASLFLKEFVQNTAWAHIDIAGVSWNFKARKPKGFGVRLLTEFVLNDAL

[5] = biological target: T1, Polyadenylate-binding protein 1; assay: PABP1 MLLE–PAM2 interaction inhibitors, dose response, miRNA deadenylation inhibitor project, biochemical, fluorescence polarization, Cy5-PAM2 peptide, secondary (AID 602260); format: functional; conditions: read-out: IC50_Mean
[6] = biological target: T3, Voltage-gated N-type calcium channel alpha-1B subunit/Amyloid beta A4 precursor protein-binding family A member 1 (Homo sapiens, UniProt Q00975+Q02410); format: protein assay
T3 sequence (Q00975 whole entry): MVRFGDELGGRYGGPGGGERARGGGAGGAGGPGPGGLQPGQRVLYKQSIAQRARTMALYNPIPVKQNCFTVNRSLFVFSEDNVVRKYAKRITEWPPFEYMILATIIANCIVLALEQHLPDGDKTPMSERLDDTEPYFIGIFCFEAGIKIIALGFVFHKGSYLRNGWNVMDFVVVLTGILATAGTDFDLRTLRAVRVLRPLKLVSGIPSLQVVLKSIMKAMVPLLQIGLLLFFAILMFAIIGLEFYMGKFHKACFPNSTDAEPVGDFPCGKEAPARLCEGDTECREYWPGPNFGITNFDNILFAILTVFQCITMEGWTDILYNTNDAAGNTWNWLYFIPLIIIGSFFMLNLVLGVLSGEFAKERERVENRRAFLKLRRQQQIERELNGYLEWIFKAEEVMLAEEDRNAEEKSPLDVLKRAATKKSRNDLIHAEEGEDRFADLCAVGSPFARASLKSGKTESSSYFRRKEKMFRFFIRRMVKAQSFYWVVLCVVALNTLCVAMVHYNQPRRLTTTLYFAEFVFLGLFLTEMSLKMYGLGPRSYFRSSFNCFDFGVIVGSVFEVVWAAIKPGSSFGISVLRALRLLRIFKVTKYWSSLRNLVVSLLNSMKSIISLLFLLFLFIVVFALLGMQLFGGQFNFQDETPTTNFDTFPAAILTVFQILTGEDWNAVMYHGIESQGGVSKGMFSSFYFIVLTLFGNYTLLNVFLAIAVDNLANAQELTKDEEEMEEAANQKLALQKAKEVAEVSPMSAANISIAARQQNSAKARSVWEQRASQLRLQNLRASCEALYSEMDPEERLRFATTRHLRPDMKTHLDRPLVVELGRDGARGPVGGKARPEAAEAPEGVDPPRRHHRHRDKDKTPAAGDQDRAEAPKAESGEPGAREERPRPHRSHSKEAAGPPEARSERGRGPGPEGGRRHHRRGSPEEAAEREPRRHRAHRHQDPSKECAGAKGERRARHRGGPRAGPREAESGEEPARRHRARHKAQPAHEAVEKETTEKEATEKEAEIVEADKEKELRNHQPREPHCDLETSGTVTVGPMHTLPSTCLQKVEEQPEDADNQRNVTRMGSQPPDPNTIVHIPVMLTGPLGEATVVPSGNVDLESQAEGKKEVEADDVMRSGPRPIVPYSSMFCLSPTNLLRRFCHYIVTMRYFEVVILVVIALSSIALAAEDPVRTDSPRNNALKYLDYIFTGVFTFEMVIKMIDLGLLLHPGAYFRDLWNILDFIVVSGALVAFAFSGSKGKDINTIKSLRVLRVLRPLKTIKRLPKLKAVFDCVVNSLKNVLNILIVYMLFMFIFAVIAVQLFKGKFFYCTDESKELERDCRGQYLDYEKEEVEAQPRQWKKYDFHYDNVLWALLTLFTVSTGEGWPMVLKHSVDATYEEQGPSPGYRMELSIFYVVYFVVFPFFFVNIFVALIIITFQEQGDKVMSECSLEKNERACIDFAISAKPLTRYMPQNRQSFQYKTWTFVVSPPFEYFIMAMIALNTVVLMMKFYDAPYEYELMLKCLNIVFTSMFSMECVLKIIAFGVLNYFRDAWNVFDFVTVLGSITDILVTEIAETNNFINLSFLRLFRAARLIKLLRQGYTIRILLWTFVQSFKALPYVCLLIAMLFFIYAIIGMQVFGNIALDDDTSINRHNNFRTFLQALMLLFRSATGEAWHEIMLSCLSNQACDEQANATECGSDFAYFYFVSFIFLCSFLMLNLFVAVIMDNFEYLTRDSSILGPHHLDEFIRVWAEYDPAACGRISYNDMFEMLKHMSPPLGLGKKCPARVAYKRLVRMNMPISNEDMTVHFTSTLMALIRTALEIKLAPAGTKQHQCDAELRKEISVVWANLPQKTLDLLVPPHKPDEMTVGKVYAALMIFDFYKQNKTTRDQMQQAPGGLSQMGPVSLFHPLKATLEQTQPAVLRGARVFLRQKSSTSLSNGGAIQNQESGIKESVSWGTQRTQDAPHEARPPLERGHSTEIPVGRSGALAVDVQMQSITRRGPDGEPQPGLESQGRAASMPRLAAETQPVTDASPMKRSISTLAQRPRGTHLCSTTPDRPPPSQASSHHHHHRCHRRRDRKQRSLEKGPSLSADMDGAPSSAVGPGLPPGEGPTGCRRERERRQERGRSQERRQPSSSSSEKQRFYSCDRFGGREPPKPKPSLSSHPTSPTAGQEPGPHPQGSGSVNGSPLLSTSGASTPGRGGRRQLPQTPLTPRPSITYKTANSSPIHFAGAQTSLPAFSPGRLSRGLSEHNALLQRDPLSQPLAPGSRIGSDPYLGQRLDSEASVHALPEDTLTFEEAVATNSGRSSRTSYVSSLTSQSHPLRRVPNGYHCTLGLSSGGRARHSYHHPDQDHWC
T3 sequence (Q02410 whole entry): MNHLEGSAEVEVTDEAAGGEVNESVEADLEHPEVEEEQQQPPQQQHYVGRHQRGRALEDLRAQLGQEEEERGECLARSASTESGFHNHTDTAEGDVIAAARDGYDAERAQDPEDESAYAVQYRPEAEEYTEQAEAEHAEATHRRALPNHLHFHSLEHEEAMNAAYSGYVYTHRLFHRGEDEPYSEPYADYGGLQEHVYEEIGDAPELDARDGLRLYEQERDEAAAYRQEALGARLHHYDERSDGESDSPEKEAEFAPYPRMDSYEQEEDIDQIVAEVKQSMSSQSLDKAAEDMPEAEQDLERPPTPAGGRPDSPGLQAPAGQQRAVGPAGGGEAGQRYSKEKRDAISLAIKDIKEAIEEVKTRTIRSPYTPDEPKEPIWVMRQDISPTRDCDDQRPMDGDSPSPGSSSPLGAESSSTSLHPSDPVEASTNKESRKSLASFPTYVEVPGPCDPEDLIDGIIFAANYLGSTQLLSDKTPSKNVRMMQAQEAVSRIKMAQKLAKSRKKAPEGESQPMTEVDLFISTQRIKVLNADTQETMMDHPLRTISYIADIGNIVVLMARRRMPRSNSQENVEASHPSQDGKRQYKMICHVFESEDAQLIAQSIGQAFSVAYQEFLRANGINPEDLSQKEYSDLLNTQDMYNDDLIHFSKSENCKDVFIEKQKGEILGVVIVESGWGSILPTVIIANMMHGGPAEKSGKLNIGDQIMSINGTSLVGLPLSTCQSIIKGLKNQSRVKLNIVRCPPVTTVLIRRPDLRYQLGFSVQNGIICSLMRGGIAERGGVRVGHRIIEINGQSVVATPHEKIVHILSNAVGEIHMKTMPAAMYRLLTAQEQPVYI

[7] = biological target: T3, Voltage-gated N-type calcium channel alpha-1B subunit/Amyloid beta A4 precursor protein-binding family A member 1; format: protein assay; remark: listed apart in the source
[8] = biological target: T4, High affinity choline transporter 1 (Homo sapiens, UniProt Q9GZV3); assay: CHT inhibitors, dose response, cell-based, 5-point CRC, membrane potential dye (AID 504840); format: functional
T4 sequence (Q9GZV3 whole entry): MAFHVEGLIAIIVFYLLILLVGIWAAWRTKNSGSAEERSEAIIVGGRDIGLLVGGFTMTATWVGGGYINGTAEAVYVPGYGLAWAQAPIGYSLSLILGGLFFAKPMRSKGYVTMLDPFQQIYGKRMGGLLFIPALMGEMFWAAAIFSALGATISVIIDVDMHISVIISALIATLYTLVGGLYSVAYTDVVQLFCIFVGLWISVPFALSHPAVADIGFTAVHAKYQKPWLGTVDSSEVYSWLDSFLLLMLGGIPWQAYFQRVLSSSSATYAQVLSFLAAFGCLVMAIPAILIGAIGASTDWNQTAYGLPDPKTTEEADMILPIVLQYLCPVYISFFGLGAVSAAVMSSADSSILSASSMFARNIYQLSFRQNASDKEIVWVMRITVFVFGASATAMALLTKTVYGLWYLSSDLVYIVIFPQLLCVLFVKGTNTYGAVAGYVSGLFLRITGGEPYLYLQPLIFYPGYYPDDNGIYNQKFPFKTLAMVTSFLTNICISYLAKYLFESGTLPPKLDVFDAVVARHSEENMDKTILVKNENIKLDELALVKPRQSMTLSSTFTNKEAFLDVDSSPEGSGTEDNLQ

Nonstructural protein 1 = Nonstructural protein 1 (Influenza A virus, UniProt Q194T2); format: functional, Influenza A virus (A/California/07/2009(H1N1))
Chain of Nonstructural protein 1 (Q194T2 whole entry): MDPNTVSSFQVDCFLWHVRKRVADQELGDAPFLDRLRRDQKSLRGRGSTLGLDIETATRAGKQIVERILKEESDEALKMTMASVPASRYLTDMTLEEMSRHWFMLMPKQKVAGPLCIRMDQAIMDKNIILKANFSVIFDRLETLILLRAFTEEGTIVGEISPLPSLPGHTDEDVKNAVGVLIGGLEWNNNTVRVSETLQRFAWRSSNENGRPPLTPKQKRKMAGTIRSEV

H9c2 = assay: cells; format: functional, cell-based; conditions: Rattus norvegicus, H9c2, Myocardium;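 also: confirmatory concentration-response retest of ultra-high-throughput screening hits for modulation of myocardial damage; cell death induced by hydrogen peroxide oxidative stress; compound pretreatment for 60 min then peroxide exposure for 2 h; potency is for protecting the cells against peroxide damage rather than for killing them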

SMILES	IC50 [6]	IC50 [7]	IC50 [8]	other results
Cc1sc(NC(=S)Nc2ccc(F)cc2)c(C(N)=O)c1C				EC50 [1]: > 79.4 µM (not active); IC50 [2]: > 66 µM (inactive); EC50 [3]: 9.42 µM (active); EC50 [4]: 9.36 µM (active); IC50 (Leucine aminopeptidase): 53.1 µM (active); IC50 [5]: > 66 µM (inactive)
O=C(COC(=O)CNC(=O)c1ccc(-c2ccccc2)cc1)NCc1ccco1	49.5 µM (active)	5.35 µM (active)		
O=C(Nc1ccc(F)cc1)C1=CC(=O)N2CCN=C2S1	> 50 µM (inactive)	10.7 µM (active)		
O=S(=O)(c1ccccc1F)N1CCN(CCc2ccccc2)CC1			5.45 µM (active)	
CCN(C(=O)CN1C(=O)S/C(=C\C=C\c2ccccc2)C1=O)C1CCS(=O)(=O)C1 (configuration not stated)	> 50 µM (inactive)	> 56.8 µM (not active)		
Cc1cc(=O)oc2cc(NC(=O)c3cccc(Br)c3)ccc12	> 50 µM (inactive)	5.32 µM (active)		
Cc1ccc(S(=O)(=O)/N=C2\C(=O)c3ccccc3C(O)=C2N2CCN(c3ccccc3F)CC2)cc1				IC50 (Nonstructural protein 1): 79.2 µM (active)
CCCn1c2ccccc2c2cnn(CC(=O)OC)c(=O)c21			15.8 µM (active)	
O=C(NCc1cccnc1)c1ccc(COc2ccccc2Cl)o1			14.5 µM (active)	
COc1ccccc1OCC(=O)N/N=C/c1cccc2cccnc12				IC50 (Nonstructural protein 1): 13.5 µM (active); IC50 (H9c2): 10.9 µM (active)
Oc1ccc(/C=N/NC(=S)Nc2cccnc2)cc1O				IC50 (Leucine aminopeptidase): 49.6 µM (active)
Fc1ccccc1CCNc1c2c(nc3ncnn13)CCCC2			13.8 µM (active)	
